Where “and” joins values, the source holds several entries; their conditions need not be identical. Equal entries are not always repeated.
Legend:
[1] = Tissue distribution in rats after oral SZ–A; assay type: in vivo; conditions: Sprague-Dawley, pancreas, rat, SZ–A 40 mg/kg p.o., 0.25, 0.5 and 2 h, n = 3, read-out: tissue to plasma ratio (T/P) in the pancreas
Procedure: Three groups of rats (three rats in each group) were administered with a single oral dose of SZ–A at 40 mg/kg. Rats each were sacrificed and various tissues, including liver, kidney, pancreas, stomach, duodenum, jejunum, ileum, cecum, colon, and the content in the gastrointestinal tract were collected at 0.25, 0.5, and 2 h time points. One additional rat was sacrificed predose to provide control tissues for analysis. After removing blood or content and weighing, each sample was individually homogenized with normal saline solution (1:3, w/v for tissue; 1:9, w/v for content) using a tissue homogenizer (Polytron PT1600E, Kinematica, Luzern, Switzerland) and stored at −20 °C until LC-MS/MS analysis.

[2] = tested on: rat caecal microbiota cultures; assay: In vitro incubation of SZ–A with rat caecal microbiota cultures; assay type: in vitro ADME; conditions: 2 h
Procedure: (§1) Pooled rat intestinal homogenate from six males was prepared using a tissue homogenizer with ice cold normal saline solution at a proportion of 1:3 (w/v). SZ–A was incubated with rat intestinal homogenate (5 mg protein/mL) with/without a NADPH-generating system (0.011 M β-NADP, 0.1 M glucose 6-phosphate, 10 U/mL glucose-6-phosphate dehydrogenase) in a 37 °C water bath for 120 min. Meanwhile, caecal content was collected and mixed with anaerobic medium (1:30, w/v) to prepare the cultures under nitrogen atmosphere at 37 °C for 120 min. SZ–A and rat caecal microbiota cultures were incubated at a total volume of 200 μL with the boiled samples as the negative control, concomitantly. The incubation was stopped at 2 h by adding two volumes of methanol–acetonitrile (1:3, v/v). Triplicate supernatants were taken by centrifugation at 18,880× g for 5 min and stored at −20 °C until LC-MS/MS analysis. The results were expressed as the percentage of the concentration at 0 min.

[3] = Excretion into urine, feces and bile in rats after oral SZ–A; assay type: in vivo; conditions: rat, SZ–A 40 mg/kg p.o.; for dose excreted: bile, po, within 32 h, read-out: recovery in bile (% of dose); for cumulative excretion into feces (% of dose) / cumulative excretion into urine (% of dose): over a 24 h period, n = 5
Procedure: Five rats were kept in the metabolic cages with free access to water and food 2 h post dose. Urine was collected before dosing and at 0–4, 4–8, 8–24, 24–36, and 36–48 h, and feces was simultaneously collected before dosing and at 0–24, 24–36, and 36–48 h after oral dosing of SZ–A (40 mg/kg). Feces samples were dried and grinded into powder, then homogenized with normal saline solution (1:9, w/v). Additionally, the bile duct of rats under ether anesthesia were cannulated with a PE-10 tube (Portex Ltd., Kent, UK). Bile was collected before dosing and at 0–1, 1–2, 2–4, 4–6, 6–10, 10–20, 20–24, 24–28, and 28–32 h following oral administration of SZ–A (40 mg/kg). All urine, feces, and bile samples were stored at −20 °C until LC-MS/MS analysis.

[4] = In vitro incubation of SZ–A with rat intestinal homogenate; assay type: in vitro ADME; conditions: SZ–A 10.87 μg/mL, with/without NADPH generation, 37 °C, 120 min
Procedure: as §1

[5] = 4.35 μg/mL SZ–A (10 μM DNJ, 1.9 μM FGM, 1.6 μM DAB)
[6] = 10.87 μg/mL SZ–A (25 μM DNJ, 4.7 μM FGM, 3.9 μM DAB)

SMILES	Kp [1]	percentage of initial amount after incubation with rat gut microbiota cultures [2, 5] [%]	percentage of initial amount after incubation with rat gut microbiota cultures [2, 6] [%]	dose excreted [3] [%]	cumulative excretion into feces (% of dose) [3] [%]	cumulative excretion into urine (% of dose) [3] [%]	amount of alkaloid after incubation in rat intestinal homogenate [4]	total excretive amount (urine and feces) relative to the oral dose [3]	cumulative excretion into feces (% of dose) ([3]; 40 mg/kg)
OC[C@H]1NC[C@@H](O)[C@@H]1O [DAB, 1,4-dideoxy-1,4-imino-D-arabinitol]	0.09 to 0.59	182.2	159.3	0.35	34.05	52.91	not changed significantly	–	–
OC[C@H]1NC[C@H](O)[C@@H](O)[C@@H]1O [DNJ, 1-deoxynojirimycin]	0.06 to 0.47	110.6	115.5	0.29	43.97	65.32	not changed significantly	–	–
OC[C@H]1NCC[C@@H](O)[C@@H]1O [FGM, fagomine]	0.18 to 1.13	152.8	172.0	0.5	–	65.36	not changed significantly	about two-fold	131.4% and 131.41%
